Results: publication PMC11590026, “Synthesis, enzyme inhibition, and docking studies of new schiff bases of disalicylic acid methylene-based derivatives as dual-target antibacterial agents” (Frontiers in Chemistry, 2024)
Converted amounts (≈) assume the structure as drawn. “And” between values parts separate entries of the source, which are not always exact repeats. Equal entries are not always repeated. Where two headings read alike, the source gives them in different places.

What was measured:
[1] = target: E. coli DNA gyrase (Escherichia coli, UniProt P0AES6); assay: E. coli DNA gyrase supercoiling inhibitory assay; assay type: biochemical
Method: The fluorescence was measured with a microplate reader (BioTek Synergy H4,
NaCl and 50 mM MgCl2) was added to terminate the enzymatic reaction. After
Initial screening was done at 100 or 10 μM concentration

[2] = tested on: MDRB (multi-drug resistant bacteria); assay: MIC/MBC against the MDRB panel as a whole; conditions: for MBC: read-out: MBC values; for MIC: read-out: MIC values
Text: Norfloxacin, a broad-spectrum antibiotic, worked as positive control.

[3] = tested on: E. coli (ATCC BAA-196); assay: Antibacterial assay against multi-drug resistant strains (MIC/MBC); assay type: cell-based, Escherichia coli; conditions: for MBC: ATCCBAA196
[4] = target: DHFR E. Coli (Escherichia coli, UniProt P0ABQ4); assay: DHFR inhibitory assay; assay type: biochemical
[5] = tested on: E. coli; assay: MIC/MBC assay, twofold serial dilution; assay type: cell-based, Escherichia coli; conditions: Escherichia coli
Method: (§1) The results of this in vitro assay test are consistent with the findings of the antimicrobial sensitivity test. […] It has lower antimicrobial activity than ciprofloxacin against all pathogens tested.
(§2) The MBC differs from the MIC. […]
(§3) 4.2.2. Minimum inhibitory concentration assay
(§4) In 96-well microtiter plates and […] of fresh bacterial culture of a single McFarland unit overnight, a double serial dilution of each compound […] in sterile standard saline were prepared to every single source well. Ciprofloxacin antibiotic (5 mg / mL - 1) and normal saline were included as standard reference in each assay. The plates were incubated at 37 0C overnight. As an indicator of bacterial growth, […] of p-iodonitrotetrazolium violet (INT) was added to each well and incubated at 37 0C for 30 […]
(§5) min. MIC values are recorded as the lowest concentration of the extract that completely inhibited bacterial growth that is clear well. The colorless tetrazolidium salt acts as an electron accepter and is reduced to a red colored formazan product by biological activity organisms. Where bacterial growth was inhibited, the solution in the well remained clear after incubation with INT. […]

[6] = tested on: P. aeruginosa; assay: MIC/MBC assay, twofold serial dilution; assay type: cell-based, Pseudomonas aeruginosa
Method: as §1, §2, §3, §4, §5

[7] = tested on: S. aureus; assay: MIC/MBC assay, twofold serial dilution; assay type: cell-based, Staphylococcus aureus
Method: as §1, §2, §3, §4, §5

[8] = tested on: Gram-positive bacteria; assay: MBC assay, Gram-positive bacteria together; assay type: cell-based; conditions: Gram-positive bacteria (B. subtilis, S. aureus)
Text: The MBC differs from the MIC.

[9] = tested on: S. aureus (ATCC 43300) (MRSA); assay: Antibacterial assay against multi-drug resistant strains (MIC/MBC); assay type: cell-based, Staphylococcus aureus; conditions: S. aureus ATCC 43300 (MRSA); for MBC: read-out: MBC
[10] = tested on: P. aeruginosa (ATCC BAA-2111); assay: as above; assay type: cell-based, Pseudomonas aeruginosa; conditions: for MBC: ATCCBAA2111
[11] = tested on: A. flavus; assay: Antifungal assay (MIC/MFC), twofold serial dilution; conditions: for MIC: A. flavus
[12] = tested on: C. albicans; assay: as above
[13] = Cell viability assay (MTT); assay type: cell-based; conditions: human, MCF-10A, 4-day incubation
Method: The vitality of the investigated compounds was assessed using the MCF-10A cell line, which is a normal human mammary gland epithelial cell line. Following a 4-day incubation period on MCF-10A cells with a concentration of 50 µM for each compound being studied, the viability of the cells was assessed using the MTT test ([Hisham et al., 2022]; [Mahmoud et al., 2022]).
4.2.3. Cell Viability assay
MTT assay was carried out to study the effect of compounds on mammary epithelial cells (MCF-10A). The medium in which cells were propagated contained Dulbecco's modified Eagle's medium (DMEM)/ Ham's F-12 medium (1:1) supplemented with epidermal growth factor (20 ng/mL), hydrocortisone (500 ng/mL), insulin (10 μg/mL), 2 mM glutamine and 10% fetal calf serum. After every 2-3 days, the cells were passaged using trypsin ethylenediamine tetra acetic acid (EDTA). The cells were seeded at a density of 10^4 cells mL-1 in flat-bottomed culture plates containing 96 wells each. After 24 h, medium was removed from the plates and the compounds in (in 0.1% DMSO) were added (in 200 μL medium to yield a final concentration of 0.1% v/v) to the wells of plates. A single compound was designated with four wells followed by incubation of plates for 96h at 37°C. After incubation, medium was removed completely from the plates followed by addition of MTT (0.4 mg/mL in medium) to each well and subsequent incubation of plates for 3h. MTT (along with the medium) was removed and DMSO (150μL) was added to each well of the culture plates, followed by vortexing and subsequent measurement of absorbance (at 540 nm) using microplate reader. The data are shown as percentage inhibition of proliferation in comparison with controls

[14] = tested on: B. subtilis; assay: MIC/MBC assay, twofold serial dilution; assay type: cell-based, Bacillus subtilis
Method: as §1, §2, §3, §4, §5

[15] = target: S. aureus DNA gyrase; parameters: method as in Alzahrani et al., 2022; conditions: ref Alzahrani et al., 2022; read-out: S. aureus DNA gyrase inhibitor IC50; cited from earlier work
[16] = Escherichia coli, ATCCBAA196, read-out: MIC
[17] = Staphylococcus aureus, read-out: MIC
[18] = Pseudomonas aeruginosa, ATCCBAA2111, read-out: MIC

Chain of DHFR E. Coli (P0ABQ4 whole entry): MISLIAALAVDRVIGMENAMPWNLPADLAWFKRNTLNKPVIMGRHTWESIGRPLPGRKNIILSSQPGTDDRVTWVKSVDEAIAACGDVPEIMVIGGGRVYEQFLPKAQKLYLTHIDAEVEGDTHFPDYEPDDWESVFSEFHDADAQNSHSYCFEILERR

For `O=C1Nc2ccc([N+](=O)[O-])cc2/C1=N/NC(=O)c1cc(Cc2ccc(O)c(C(=O)N/N=C3\C(=O)Nc4ccc([N+](=O)[O-])cc43)c2)ccc1O` [Compound 6l], the IC50 [1] was 87 ± 6 nM, the “Potency relative to novobiocin against DNA gyrase” value [1] was “twice as potent as novobiocin” and the MBC [2] was 4.5 to 6.5 µM (≈ 2.99 to 4.32 µg/mL). It also gave an MIC [2] of 2.2 to 4.5 µM (≈ 1.46 to 2.99 µg/mL), an MBC ([3]; Escherichia coli) of 4.8 ± 0.2 µM (≈ 3.19 µg/mL) and an MIC [3, 16] of 2.7 ± 0.1 µM (≈ 1.79 µg/mL). For the same molecule, the IC50 [4] was 4.25 ± 0.1 µM, the MBC ([5]; read-out: MBC) was 0.077 ± 0.006 µM (≈ 0.0512 µg/mL) and the MIC ([5]; read-out: MIC) was 0.057 ± 0.004 µM (≈ 0.0379 µg/mL). It also gave an MBC [6] of 78 ± 6 nM (≈ 0.0518 µg/mL), an MBC ([6]; Pseudomonas aeruginosa, read-out: MBC) of 78 nM (≈ 0.0518 µg/mL) and an MIC ([6]; Pseudomonas aeruginosa, read-out: MIC) of 0.057 ± 0.004 µM (≈ 0.0379 µg/mL). For the same molecule, the MBC [7] was 33 ± 2 nM (≈ 0.0219 µg/mL), the MIC [7] was 21 ± 2 nM (≈ 0.014 µg/mL) and the “Times more effective than ciprofloxacin (MIC)” value [7] was 1.5 times. The MBC ([7]; Staphylococcus aureus, read-out: MBC) was 33 nM (≈ 0.0219 µg/mL), the MIC [7, 17] was 21 nM (≈ 0.014 µg/mL) and the MBC [8] was 0.028 to 0.058 µM (≈ 0.0186 to 0.0385 µg/mL). It also gave an MBC ([9]; Staphylococcus aureus) of 4.5 ± 0.2 µM (≈ 2.99 µg/mL), an MIC [9, 17] of 2.2 ± 0.1 µM (≈ 1.46 µg/mL) and an MBC ([10]; Pseudomonas aeruginosa) of 6.5 ± 0.25 µM (≈ 4.32 µg/mL). The MIC [10, 18] was 4.5 ± 0.2 µM (≈ 2.99 µg/mL), the MIC [11] was 15.60 µM and 15.60 ± 1 µM and the MFC ([11]; Aspergillus flavus) was 31.1 ± 2 µM (≈ 20.7 µg/mL). The MIC ([11]; Aspergillus flavus) was 14.5 to 19.5 µM (≈ 9.64 to 13 µg/mL), the MIC ([12]; C. albicans) was 19.50 ± 1 µM (≈ 13 µg/mL) and the MFC ([12]; Candida albicans) was 39.2 ± 3 µM (≈ 26.1 µg/mL). The MIC ([12]; Candida albicans) was 19.5 µM (≈ 13 µg/mL), the viability at 96 h, 50 µM [13] was 89% and the MBC [14] was 43 ± 3 nM (≈ 0.0286 µg/mL). The “Times less effective than ciprofloxacin (MIC)” value [14] was 2.5 times, the MBC ([14]; Bacillus subtilis, read-out: MBC) was 43 nM (≈ 0.0286 µg/mL) and the MIC ([14]; Bacillus subtilis, read-out: MIC) was 0.026 ± 0.002 µM (≈ 0.0173 µg/mL).
In the case of `O=C1Nc2ccc(S(=O)(=O)N3CCOCC3)cc2/C1=N/NC(=O)C12CC3CC(CC(C3)C1)C2` [II], the IC50 [15] is listed as 19.3 µM.
In the case of `CCN(CC)S(=O)(=O)c1ccc2c(c1)C1(C(=O)N2)C(C#N)=COC(c2ccccc2)=C1C(C)=O` (stereo not shown) [I], the IC50 [15] is given as 18.1 µM.
`CCn1cc(C(=O)O)c(=O)c2cc(F)c(N3CCNCC3)cc21` [Norfloxacin, reference compound] gave an MBC [2] of 2.8 to 4.7 µM (≈ 0.894 to 1.5 µg/mL), an MIC [2] of 1.2 to 3.2 µM (≈ 0.383 to 1.02 µg/mL) and an MIC [3] of 1.60 ± 0.10 µM (≈ 0.511 µg/mL). The MBC ([3]; Escherichia coli) was 3.5 ± 0.1 µM (≈ 1.12 µg/mL), the MIC [3, 16] was 1.6 µM (≈ 0.511 µg/mL) and the MIC [9] was 1.20 ± 0.10 µM (≈ 0.383 µg/mL). For the same molecule, the MBC ([9]; Staphylococcus aureus) was 2.8 ± 0.1 µM (≈ 0.894 µg/mL), the MIC [9, 17] was 1.2 µM (≈ 0.383 µg/mL) and the MIC [10] was 3.20 ± 0.10 µM (≈ 1.02 µg/mL). It also gave an MBC ([10]; Pseudomonas aeruginosa) of 4.7 ± 0.2 µM (≈ 1.5 µg/mL) and an MIC [10, 18] of 3.2 µM (≈ 1.02 µg/mL).
